According to ChEMBL document CHEMBL4765362, “Thirty Years of HDAC Inhibitors: 2020 Insight and Hindsight” (J Med Chem, 2020):

Experiments:
Histone deacetylase 1 = Histone deacetylase 1 (Homo sapiens, UniProt Q13547); experiment: Inhibition of human full length C-terminal Flag tagged HDAC1 expressed in HEK293T cells using H3K9-myristoyl peptide as substrate by HPLC method
Histone deacetylase 7 [1] = molecular target: T1, Histone deacetylase 7 (Homo sapiens, UniProt Q8WUI4); experiment: Inhibition of HDAC7 (unknown origin)
T1 sequence (Q8WUI4 whole entry): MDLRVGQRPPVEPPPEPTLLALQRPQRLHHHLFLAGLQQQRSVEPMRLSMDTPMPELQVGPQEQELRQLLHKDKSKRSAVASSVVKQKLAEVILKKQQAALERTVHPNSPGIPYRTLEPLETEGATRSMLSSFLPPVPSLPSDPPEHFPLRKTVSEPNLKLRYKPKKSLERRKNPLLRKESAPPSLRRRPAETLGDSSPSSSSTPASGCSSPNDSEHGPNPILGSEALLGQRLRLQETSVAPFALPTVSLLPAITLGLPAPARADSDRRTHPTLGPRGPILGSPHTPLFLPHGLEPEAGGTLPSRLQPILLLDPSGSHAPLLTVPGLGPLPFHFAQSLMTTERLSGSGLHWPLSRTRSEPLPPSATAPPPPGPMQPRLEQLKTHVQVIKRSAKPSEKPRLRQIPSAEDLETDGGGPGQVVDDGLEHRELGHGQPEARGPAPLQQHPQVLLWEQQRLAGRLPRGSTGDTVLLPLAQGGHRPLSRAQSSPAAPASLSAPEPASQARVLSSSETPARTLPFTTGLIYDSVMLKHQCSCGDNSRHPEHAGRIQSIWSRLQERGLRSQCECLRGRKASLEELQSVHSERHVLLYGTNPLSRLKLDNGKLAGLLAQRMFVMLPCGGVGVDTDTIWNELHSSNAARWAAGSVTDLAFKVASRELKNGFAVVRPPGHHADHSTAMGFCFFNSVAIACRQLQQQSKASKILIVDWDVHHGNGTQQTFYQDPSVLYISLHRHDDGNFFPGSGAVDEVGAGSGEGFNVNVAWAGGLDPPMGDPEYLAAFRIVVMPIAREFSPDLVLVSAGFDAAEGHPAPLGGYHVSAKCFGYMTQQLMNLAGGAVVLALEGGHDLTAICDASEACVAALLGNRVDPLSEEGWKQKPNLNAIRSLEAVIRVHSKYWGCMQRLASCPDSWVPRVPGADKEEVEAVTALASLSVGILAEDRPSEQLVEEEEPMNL

Histone deacetylase 8 = molecular target: T2, Histone deacetylase 8 (Homo sapiens, UniProt Q9BY41); experiment: Inhibition of HDAC8 (unknown origin)
T2 sequence (Q9BY41 whole entry): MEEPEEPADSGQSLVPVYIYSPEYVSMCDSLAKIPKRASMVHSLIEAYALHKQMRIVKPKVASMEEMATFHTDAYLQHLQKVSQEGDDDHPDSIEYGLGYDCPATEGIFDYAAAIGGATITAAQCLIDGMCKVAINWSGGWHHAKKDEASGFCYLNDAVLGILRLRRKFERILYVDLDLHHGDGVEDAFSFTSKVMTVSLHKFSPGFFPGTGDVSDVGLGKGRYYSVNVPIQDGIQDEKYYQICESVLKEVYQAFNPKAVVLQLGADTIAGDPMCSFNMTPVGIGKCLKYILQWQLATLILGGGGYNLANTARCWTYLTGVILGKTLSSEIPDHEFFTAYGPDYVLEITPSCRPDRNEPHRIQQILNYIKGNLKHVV

Histone deacetylase 4 = Histone deacetylase 4 (Homo sapiens, UniProt P56524); experiment: Inhibition of human full length C-terminal Flag tagged HDAC4 expressed in HEK293T cells using H3K9-myristoyl peptide as substrate by HPLC method
Histone deacetylase 4, sequence (P56524 whole entry): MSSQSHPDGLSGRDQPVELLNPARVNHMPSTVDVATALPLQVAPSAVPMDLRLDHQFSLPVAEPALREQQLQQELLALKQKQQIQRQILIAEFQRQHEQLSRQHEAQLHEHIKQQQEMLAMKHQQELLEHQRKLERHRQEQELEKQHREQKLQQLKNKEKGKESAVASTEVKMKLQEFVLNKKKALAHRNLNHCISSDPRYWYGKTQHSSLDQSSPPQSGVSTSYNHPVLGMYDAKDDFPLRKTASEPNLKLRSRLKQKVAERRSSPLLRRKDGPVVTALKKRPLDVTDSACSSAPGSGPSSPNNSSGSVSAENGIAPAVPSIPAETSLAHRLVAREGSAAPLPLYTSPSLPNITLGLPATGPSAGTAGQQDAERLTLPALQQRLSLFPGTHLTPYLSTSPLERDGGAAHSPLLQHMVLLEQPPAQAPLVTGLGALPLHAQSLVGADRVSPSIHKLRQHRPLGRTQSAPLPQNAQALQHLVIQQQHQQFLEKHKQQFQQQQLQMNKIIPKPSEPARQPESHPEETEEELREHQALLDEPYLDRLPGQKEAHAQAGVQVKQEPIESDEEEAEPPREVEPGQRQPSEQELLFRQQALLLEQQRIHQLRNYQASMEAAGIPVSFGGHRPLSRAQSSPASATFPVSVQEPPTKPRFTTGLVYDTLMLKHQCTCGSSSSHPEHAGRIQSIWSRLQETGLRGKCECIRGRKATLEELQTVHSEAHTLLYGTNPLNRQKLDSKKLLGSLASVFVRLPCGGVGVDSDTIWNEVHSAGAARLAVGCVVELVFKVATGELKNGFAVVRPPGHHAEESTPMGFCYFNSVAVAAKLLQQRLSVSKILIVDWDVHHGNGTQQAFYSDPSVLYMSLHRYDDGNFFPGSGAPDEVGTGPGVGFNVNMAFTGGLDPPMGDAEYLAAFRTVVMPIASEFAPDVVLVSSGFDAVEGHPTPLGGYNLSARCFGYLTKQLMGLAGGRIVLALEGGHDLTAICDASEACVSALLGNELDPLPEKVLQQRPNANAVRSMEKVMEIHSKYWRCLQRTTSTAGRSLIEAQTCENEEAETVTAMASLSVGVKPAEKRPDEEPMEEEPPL

Histone deacetylase 11 [2] = molecular target: T3, Histone deacetylase 11 (Homo sapiens, UniProt Q96DB2); experiment: Inhibition of human full length C-terminal Flag tagged HDAC11 expressed in HEK293T cells assessed as reduction in demyristoylation activity using H3K9-myristoyl peptide as substrate by HPLC method
T3 sequence (Q96DB2 whole entry): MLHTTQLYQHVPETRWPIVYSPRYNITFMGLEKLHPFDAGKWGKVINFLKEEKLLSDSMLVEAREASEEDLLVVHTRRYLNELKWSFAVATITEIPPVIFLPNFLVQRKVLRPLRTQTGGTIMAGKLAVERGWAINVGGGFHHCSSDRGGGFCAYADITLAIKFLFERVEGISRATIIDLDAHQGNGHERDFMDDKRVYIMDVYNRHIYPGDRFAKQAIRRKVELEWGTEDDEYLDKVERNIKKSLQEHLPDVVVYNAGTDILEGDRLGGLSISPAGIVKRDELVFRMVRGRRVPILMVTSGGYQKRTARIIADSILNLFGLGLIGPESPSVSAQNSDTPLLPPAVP

Histone deacetylase 5 [3] = molecular target: T4, Histone deacetylase 5 (Homo sapiens, UniProt Q9UQL6); experiment: Inhibition of HDAC5 (unknown origin)
T4 sequence (Q9UQL6 whole entry): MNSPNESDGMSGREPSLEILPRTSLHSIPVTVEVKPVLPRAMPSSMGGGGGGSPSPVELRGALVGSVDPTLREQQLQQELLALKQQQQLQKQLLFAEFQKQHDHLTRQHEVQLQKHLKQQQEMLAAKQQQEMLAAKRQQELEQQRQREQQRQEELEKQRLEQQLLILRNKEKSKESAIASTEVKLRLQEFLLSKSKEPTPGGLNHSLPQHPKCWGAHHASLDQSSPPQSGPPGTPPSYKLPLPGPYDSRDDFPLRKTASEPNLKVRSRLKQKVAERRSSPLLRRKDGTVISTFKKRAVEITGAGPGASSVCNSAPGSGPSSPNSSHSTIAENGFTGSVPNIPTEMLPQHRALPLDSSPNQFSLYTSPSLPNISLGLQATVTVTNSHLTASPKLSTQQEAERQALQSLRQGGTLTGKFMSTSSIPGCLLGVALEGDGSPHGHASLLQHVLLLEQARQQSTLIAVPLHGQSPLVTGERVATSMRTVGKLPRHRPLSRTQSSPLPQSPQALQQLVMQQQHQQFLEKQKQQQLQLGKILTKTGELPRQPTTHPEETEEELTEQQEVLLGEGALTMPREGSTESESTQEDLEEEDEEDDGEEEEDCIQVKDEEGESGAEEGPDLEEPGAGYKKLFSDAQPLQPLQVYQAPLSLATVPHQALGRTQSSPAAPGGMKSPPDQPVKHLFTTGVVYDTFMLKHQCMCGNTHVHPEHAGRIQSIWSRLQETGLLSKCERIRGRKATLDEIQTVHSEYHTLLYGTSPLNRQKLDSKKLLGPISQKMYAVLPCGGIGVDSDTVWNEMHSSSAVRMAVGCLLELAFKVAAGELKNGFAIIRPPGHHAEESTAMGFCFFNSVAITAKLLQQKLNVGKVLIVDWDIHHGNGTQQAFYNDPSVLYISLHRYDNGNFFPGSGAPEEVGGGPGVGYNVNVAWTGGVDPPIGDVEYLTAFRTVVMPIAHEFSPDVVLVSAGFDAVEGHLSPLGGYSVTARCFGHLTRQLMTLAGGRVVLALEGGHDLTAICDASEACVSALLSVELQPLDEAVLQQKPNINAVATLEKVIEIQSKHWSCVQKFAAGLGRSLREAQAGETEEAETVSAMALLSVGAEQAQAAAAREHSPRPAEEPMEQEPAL

Histone deacetylase 9 = Histone deacetylase 9 (Homo sapiens, UniProt Q9UKV0); experiment: Inhibition of HDAC9 (unknown origin)
Histone deacetylase 9, sequence (Q9UKV0 whole entry): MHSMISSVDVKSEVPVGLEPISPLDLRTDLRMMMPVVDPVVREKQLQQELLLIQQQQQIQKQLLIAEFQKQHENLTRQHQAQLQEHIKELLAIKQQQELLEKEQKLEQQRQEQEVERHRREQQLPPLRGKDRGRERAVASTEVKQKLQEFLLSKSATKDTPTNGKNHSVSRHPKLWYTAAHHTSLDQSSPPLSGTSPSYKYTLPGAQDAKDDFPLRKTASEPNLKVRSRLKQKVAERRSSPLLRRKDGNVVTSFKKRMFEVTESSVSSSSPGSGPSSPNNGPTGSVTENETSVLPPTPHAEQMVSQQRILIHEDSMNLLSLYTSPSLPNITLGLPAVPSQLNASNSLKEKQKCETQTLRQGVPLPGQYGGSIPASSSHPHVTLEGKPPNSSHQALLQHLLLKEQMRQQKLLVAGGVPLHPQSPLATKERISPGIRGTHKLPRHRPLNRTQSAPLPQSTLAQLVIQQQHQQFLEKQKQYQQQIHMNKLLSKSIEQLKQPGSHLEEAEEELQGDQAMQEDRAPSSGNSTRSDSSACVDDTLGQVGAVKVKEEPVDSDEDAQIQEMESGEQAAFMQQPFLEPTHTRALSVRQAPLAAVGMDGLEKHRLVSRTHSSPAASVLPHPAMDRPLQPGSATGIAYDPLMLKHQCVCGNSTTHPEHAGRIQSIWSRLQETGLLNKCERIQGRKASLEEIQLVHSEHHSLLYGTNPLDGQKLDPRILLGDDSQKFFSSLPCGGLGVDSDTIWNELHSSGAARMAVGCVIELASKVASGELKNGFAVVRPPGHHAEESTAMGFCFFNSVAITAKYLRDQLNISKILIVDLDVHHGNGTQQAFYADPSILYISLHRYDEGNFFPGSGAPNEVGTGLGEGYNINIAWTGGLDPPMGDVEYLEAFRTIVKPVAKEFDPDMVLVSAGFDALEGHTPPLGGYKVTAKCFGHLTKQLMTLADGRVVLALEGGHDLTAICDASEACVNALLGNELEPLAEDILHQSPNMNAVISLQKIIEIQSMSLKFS

Histone deacetylase 2 = Histone deacetylase 2 (Homo sapiens, UniProt Q92769); experiment: Inhibition of HDAC2 (unknown origin)
Histone deacetylase 2, sequence (Q92769 whole entry): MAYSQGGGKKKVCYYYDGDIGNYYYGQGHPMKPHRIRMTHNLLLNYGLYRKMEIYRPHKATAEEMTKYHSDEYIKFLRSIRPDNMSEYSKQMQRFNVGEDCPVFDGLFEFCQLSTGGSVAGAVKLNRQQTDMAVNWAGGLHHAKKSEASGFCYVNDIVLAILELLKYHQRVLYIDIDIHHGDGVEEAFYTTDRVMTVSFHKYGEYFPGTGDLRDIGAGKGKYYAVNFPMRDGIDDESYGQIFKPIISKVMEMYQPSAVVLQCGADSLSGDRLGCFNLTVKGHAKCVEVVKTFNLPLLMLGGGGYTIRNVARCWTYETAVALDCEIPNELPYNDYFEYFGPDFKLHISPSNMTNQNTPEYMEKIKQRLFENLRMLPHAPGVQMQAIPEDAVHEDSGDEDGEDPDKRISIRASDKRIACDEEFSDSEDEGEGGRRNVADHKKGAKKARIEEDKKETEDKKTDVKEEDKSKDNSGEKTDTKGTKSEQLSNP

Histone deacetylase 3 = Histone deacetylase 3 (Homo sapiens, UniProt O15379); experiment: Inhibition of HDAC3 (unknown origin)
Histone deacetylase 3, sequence (O15379 whole entry): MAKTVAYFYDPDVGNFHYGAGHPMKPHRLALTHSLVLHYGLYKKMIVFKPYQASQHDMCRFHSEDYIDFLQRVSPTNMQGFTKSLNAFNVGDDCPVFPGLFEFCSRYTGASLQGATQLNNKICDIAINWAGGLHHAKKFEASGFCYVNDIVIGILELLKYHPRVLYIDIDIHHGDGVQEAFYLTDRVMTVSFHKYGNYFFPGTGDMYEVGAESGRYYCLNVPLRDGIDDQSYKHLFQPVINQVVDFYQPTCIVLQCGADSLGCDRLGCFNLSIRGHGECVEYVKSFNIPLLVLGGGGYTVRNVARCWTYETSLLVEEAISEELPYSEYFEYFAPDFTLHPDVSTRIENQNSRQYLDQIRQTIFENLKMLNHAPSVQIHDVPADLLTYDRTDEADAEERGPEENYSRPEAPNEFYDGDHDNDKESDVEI

Histone deacetylase 7 [4] = molecular target: T1, Histone deacetylase 7; experiment: Inhibition of HDAC7 (unknown origin) using HDAC class IIa substrate (trifluoroacetyl-lysine-AMC) as substrate by fluorescent method
Histone deacetylase 11 [5] = molecular target: T3, Histone deacetylase 11; experiment: Inhibition of HDAC11 (unknown origin) using p53 (379 to 382 residues)(RHKK(Ac)-AMC) as substrate by fluorescent method
Histone deacetylase 5 [6] = molecular target: T4, Histone deacetylase 5; experiment: Inhibition of HDAC5 (unknown origin) using HDAC class IIa substrate (trifluoroacetyl-lysine-AMC) as substrate by fluorescent method

Histone deacetylase 1, sequence (Q13547 whole entry): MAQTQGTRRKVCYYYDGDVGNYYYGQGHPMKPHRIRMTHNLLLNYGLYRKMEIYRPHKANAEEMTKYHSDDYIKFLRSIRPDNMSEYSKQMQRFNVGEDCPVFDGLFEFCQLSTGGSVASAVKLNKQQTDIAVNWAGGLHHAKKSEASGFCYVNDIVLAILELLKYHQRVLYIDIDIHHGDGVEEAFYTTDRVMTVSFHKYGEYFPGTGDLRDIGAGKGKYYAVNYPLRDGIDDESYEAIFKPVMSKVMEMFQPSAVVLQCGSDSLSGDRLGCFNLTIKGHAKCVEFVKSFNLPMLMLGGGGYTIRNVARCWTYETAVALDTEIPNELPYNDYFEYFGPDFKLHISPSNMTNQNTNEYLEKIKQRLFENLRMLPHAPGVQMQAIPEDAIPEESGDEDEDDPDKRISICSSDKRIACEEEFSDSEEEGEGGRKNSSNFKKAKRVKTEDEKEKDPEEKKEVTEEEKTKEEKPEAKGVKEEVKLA

Row | SMILES | IC50 (Histone deacetylase 1) | IC50 (Histone deacetylase 7 [1]) | IC50 (Histone deacetylase 8) | IC50 (Histone deacetylase 4) | IC50 (Histone deacetylase 11 [2]) | IC50 (Histone deacetylase 5 [3]) | IC50 (Histone deacetylase 9) | IC50 (Histone deacetylase 2) | IC50 (Histone deacetylase 3) | IC50 (Histone deacetylase 7 [4]) | IC50 (Histone deacetylase 11 [5]) | IC50 (Histone deacetylase 5 [6])
1 | CCCCCCCCCCCCCCCCNNC(=O)c1cccs1 | > 10 µM | > 10 µM | 6 µM | > 10 µM | 0.83 µM | > 10 µM | > 10 µM | > 10 µM | > 10 µM |  |  | 
2 | Cn1cc(-c2ccc(S(=O)(=O)n3ccc(/C=C/C(=O)Nc4ccccc4N)c3)cc2)cn1 [DOMATINOSTAT] |  |  |  |  |  |  |  |  |  | > 10 µM | 9.7 µM | > 10 µM
